Measurements from article PMC12560828, “Chemical structure drives developmental toxicity of alkyl-substituted naphthalenes in zebrafish” (Environment international, 2025).

Tested on: zebrafish embryos, gene expression at 48 hpf
Experiment: Targeted transcriptomics (TempO-Seq S1500+ zebrafish panel), differential expression
Assay type: in vivo, Danio rerio
Details: 20 μM
Description: Targeted transcriptomics were performed using the Biospyder™ TempO-Seq™ 96-well plate platform. This platform used detector oligos for a gene set of 3112 probes selected through data driven approaches and expert curation ([Balik-Meisner et al., 2019]). The targeted transcriptomics approach was selected to maximize the number of chemicals that could be included in the analysis while managing cost and data analysis requirements. Targeted transcriptomics were limited to 96 samples, three chemicals without morphological effects were excluded from the analysis to ensure n = 4 per chemical and n = 6 controls, excluded chemicals are indicated in SI-T3.
A single exposure concentration of 20 μM was chosen as the maximum possible concentration to elicit a biological response that also ensured enough viable animals for RNA collection for every chemical. The same concentration per chemical was chosen as opposed to a phenotypically anchored concentration due to variability in 48 hpf survival across chemicals at the same 120 hpf percent effect and to allow for a direct comparison of chemical potency and transcriptomic response. 48 hpf was chosen to ensure the measurement of transcriptomic responses prior to the emergence of observable phenotypic effects. This timepoint has been used extensively and enhanced the ability to compare our results across datasets. Exposure was conducted over two days, chemicals were split into day groups by numerical order of randomly generated internal labels, 11 chemicals and control each day, n = 48 embryos across six vials per treatment. Exposure was conducted as previously described in section 2.3. At 48 hpf embryos were collected for RNA extraction. Embryos from two exposure vials were kept for morphological effect assessments which were as expected based on screening results. From the remaining wells, six phenotypically normal embryos were collected and pooled in their vial groups into 1.5 mL Eppendorf tubes, placed on ice (~30 sec), excess medium was removed, placed back on ice (~30 sec), and 200 μL RNA shield was added. […] of n = 6 pooled embryos were collected from each treatment.
RNA was extracted from exposure groups on day one and day two. 100 μL of lysis buffer was added to each tube containing pooled embryo samples and 200 μL of RNA shield, the full contents of the tube were then transferred to the homogenization plate (2 mL deep 96-well plate pre-filled with 400 μL 1 mm zirconium beads and 500 μL of lysis buffer). The plate was homogenized for 1.5 min using the Mini-BeadBeater 96 (BioSpec Products, Bartlesville, OK, United States) and centrifuged for five min at 3000 rcf. 550 μL of the supernatant was distributed over two plates, each pre-filled with 275 μL of ethanol. RNA extraction was performed using the KingFisher Apex System (ThermoFisher Scientific, Waltham, MA, United States) and Quick-RNA Magbead kit (Zymo Research Corporation, Irvine, CA, Untied States). Briefly, this automated process uses Mag beads to collect RNA from the sample, after a series of washes and treatment with DNase the RNA is eluted in 50 μL of ultra-pure water. RNA quality was assessed using the 4150 TapeStation System (Agilent, Santa Clara, CA, United States). All samples used had RNA integrity number (RIN) scores >9.8. RNA concentration was determined using Quant-iT RNA Reagent and assay kit and Varioskan ALF multi-mode plate reader (ThermoFisher Scientific, Waltham, MA, United States) in duplicate, samples with high variability (coefficient of variance (CV) > 10) between reads were repeated in triplicate. The average of the quantification reads was used for RNA concentration normalization. […] All 94 samples were normalized using ultra-pure water to the lowest concentration sample − 14.9 ng/μL. […]

Compound	number of differentially expressed genes (DEGs) (p-value ≤ 0.05 and log2FC ≥ |1|, result in words)	nt5dc2 expression (result in words)	logFC CCN1 (vs global control (SI-T13))	logFC FGFBP2B (vs global control (SI-T13))	logFC MFAP2 (vs global control (SI-T13))	logFC PDE6GB (vs global control (SI-T13))	logFC PLOD1A (vs global control (SI-T13))
Cc1ccc2cccc(C)c2c1 [1,7-dimethylnaphthalene]	substantially more DEGs than the rest of the chemicals tested	decreased expression	-1.157	-1.676	-0.751	-0.7875	-3.2359
Cc1ccc2ccc(C)cc2c1 [2,7-dimethylnaphthalene]		decreased expression					
CCc1ccc2ccccc2c1 [2-ethylnaphthalene]		decreased expression					
